Data taken from PubChem BioAssay AID1963977 (Molecular Pharmacology Branch, DTP, NCI, 2024).
Each block holds one molecule with its values, some of them ahead of it.

Test system: 624824-186-R-J3-PDC multicell spheroids, viability
Experiment: Anticancer human tumor 624824-186-R-J3-PDC patient-derived colon adenocarcinoma cell line growth inhibition [PI3K]
Details: for IC50: curve of first compound; for viability, T/C: stronger effect = lower value
Summary of the method: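 Spheroid viability read-out. Co-cultures contained the tumor line plus HUVEC and human MSCs. Each agent was paired with a PI3K inhibitor (inavolisib, alpelisib, duvelisib, copanlisib) across half-log dilutions starting at clinical Cmax, or at 10 microM when Cmax was unknown.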

[1] = second compound 0.00316 µM, first compound 0.0316 µM
[2] = second compound 0.00316 µM, first compound 0.1 µM
[3] = second compound 0.00316 µM, first compound 0.316 µM
[4] = second compound 0.00316 µM, first compound 1 µM
[5] = second compound 0.00316 µM, first compound 3.16 µM
[6] = second compound 0.00316 µM, first compound 10 µM
[7] = second compound 0.01 µM, first compound 0.0316 µM
[8] = second compound 0.01 µM, first compound 0.1 µM
[9] = second compound 0.01 µM, first compound 0.316 µM
[10] = second compound 0.01 µM, first compound 1 µM
[11] = second compound 0.01 µM, first compound 3.16 µM
[12] = second compound 0.01 µM, first compound 10 µM
[13] = second compound 0.0316 µM, first compound 0.0316 µM
[14] = second compound 0.0316 µM, first compound 0.1 µM
[15] = second compound 0.0316 µM, first compound 0.316 µM
[16] = second compound 0.0316 µM, first compound 1 µM
[17] = second compound 0.0316 µM, first compound 3.16 µM
[18] = second compound 0.0316 µM, first compound 10 µM
[19] = second compound 0.1 µM, first compound 0.0316 µM
[20] = second compound 0.1 µM, first compound 0.1 µM
[21] = second compound 0.1 µM, first compound 0.316 µM
[22] = second compound 0.1 µM, first compound 1 µM
[23] = second compound 0.1 µM, first compound 3.16 µM
[24] = second compound 0.1 µM, first compound 10 µM
[25] = second compound 0.316 µM, first compound 0.0316 µM
[26] = second compound 0.316 µM, first compound 0.1 µM
[27] = second compound 0.316 µM, first compound 0.316 µM
[28] = second compound 0.316 µM, first compound 1 µM
[29] = second compound 0.316 µM, first compound 3.16 µM
[30] = second compound 0.316 µM, first compound 10 µM
[31] = second compound 1 µM, first compound 0.0316 µM
[32] = second compound 1 µM, first compound 0.1 µM
[33] = second compound 1 µM, first compound 0.316 µM
[34] = second compound 1 µM, first compound 1 µM
[35] = second compound 1 µM, first compound 3.16 µM
[36] = second compound 1 µM, first compound 10 µM
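Note: spheroids exposed to agents for seven days before luminescence read.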
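Throughout, for viability, T/C: luminescent signal used as a stand-in for spheroid viability; percent viability relative to DMSO vehicle control wells taken as 100%.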

IC50 (second compound 0.00316 µM): > 10 µM | IC50 (second compound 0.01 µM): > 10 µM | IC50 (second compound 0.0316 µM): > 10 µM | IC50 (second compound 0.1 µM): > 10 µM | IC50 (second compound 0.316 µM): < 0.0316 µM | IC50 (second compound 1 µM): < 0.0316 µM
Compound: CC1(C)CCC(CN2CCN(c3ccc(C(=O)NS(=O)(=O)c4ccc(NCC5CCOCC5)c([N+](=O)[O-])c4)c(Oc4cnc5[nH]ccc5c4)c3)CC2)=C(c2ccc(Cl)cc2)C1 + COc1c(OCCCN2CCOCC2)ccc2c3n(c(=NC(=O)c4cnc(N)nc4)nc12)CCN3
viability, T/C [1]: 114% | viability, T/C [2]: 99.2% | viability, T/C [3]: 111% | viability, T/C [4]: 102% | viability, T/C [5]: 121% | viability, T/C [6]: 105% | viability, T/C [7]: 93.7% | viability, T/C [8]: 99.5% | viability, T/C [9]: 105% | viability, T/C [10]: 105% | viability, T/C [11]: 105% | viability, T/C [12]: 107% | viability, T/C [13]: 95% | viability, T/C [14]: 96.8% | viability, T/C [15]: 89.6% | viability, T/C [16]: 87.6% | viability, T/C [17]: 99.1% | viability, T/C [18]: 85.2% | viability, T/C [19]: 73.1% | viability, T/C [20]: 83.8% | viability, T/C [21]: 74.4% | viability, T/C [22]: 75.5% | viability, T/C [23]: 65% | viability, T/C [24]: 80% | viability, T/C [25]: 50.7% | viability, T/C [26]: 46.9% | viability, T/C [27]: 50.7% | viability, T/C [28]: 47.2% | viability, T/C [29]: 43.1% | viability, T/C [30]: 57.9% | viability, T/C [31]: 29.5% | viability, T/C [32]: 33.7% | viability, T/C [33]: 31.5% | viability, T/C [34]: 33.7% | viability, T/C [35]: 26.9% | viability, T/C [36]: 30.8%

IC50 (second compound 0.00316 µM): 5.31 µM | IC50 (second compound 0.01 µM): 3.71 µM | IC50 (second compound 0.0316 µM): 1.87 µM | IC50 (second compound 0.1 µM): 0.331 µM | IC50 (second compound 0.316 µM): < 0.0316 µM | IC50 (second compound 1 µM): < 0.0316 µM
Compound: CCCS(=O)(=O)Nc1ccc(F)c(C(=O)c2c[nH]c3ncc(-c4ccc(Cl)cc4)cc23)c1F + COc1c(OCCCN2CCOCC2)ccc2c3n(c(=NC(=O)c4cnc(N)nc4)nc12)CCN3
viability, T/C [1]: 87.3% | viability, T/C [2]: 103% | viability, T/C [3]: 114% | viability, T/C [4]: 96.9% | viability, T/C [5]: 82.5% | viability, T/C [6]: 10.3% | viability, T/C [7]: 102% | viability, T/C [8]: 102% | viability, T/C [9]: 84.8% | viability, T/C [10]: 74.8% | viability, T/C [11]: 61.5% | viability, T/C [12]: 13.6% | viability, T/C [13]: 95.7% | viability, T/C [14]: 86.3% | viability, T/C [15]: 65.4% | viability, T/C [16]: 67% | viability, T/C [17]: 42.6% | viability, T/C [18]: 16.1% | viability, T/C [19]: 74.7% | viability, T/C [20]: 66% | viability, T/C [21]: 46.4% | viability, T/C [22]: 37.7% | viability, T/C [23]: 27.5% | viability, T/C [24]: 9.08% | viability, T/C [25]: 44% | viability, T/C [26]: 37.5% | viability, T/C [27]: 31.8% | viability, T/C [28]: 24.1% | viability, T/C [29]: 17.2% | viability, T/C [30]: 8.93% | viability, T/C [31]: 29% | viability, T/C [32]: 27.1% | viability, T/C [33]: 20.4% | viability, T/C [34]: 17.2% | viability, T/C [35]: 12.5% | viability, T/C [36]: 6.57%

IC50 (second compound 0.00316 µM): > 10 µM | IC50 (second compound 0.01 µM): > 10 µM | IC50 (second compound 0.0316 µM): > 10 µM | IC50 (second compound 0.1 µM): 4.44 µM | IC50 (second compound 0.316 µM): 0.538 µM | IC50 (second compound 1 µM): < 0.0316 µM
Compound: C[C@@H](NC(=O)c1ncnc(N)c1Cl)c1ncc(C(=O)Nc2cc(C(F)(F)F)c(Cl)cn2)s1 + COc1c(OCCCN2CCOCC2)ccc2c3n(c(=NC(=O)c4cnc(N)nc4)nc12)CCN3
viability, T/C [1]: 108% | viability, T/C [2]: 114% | viability, T/C [3]: 109% | viability, T/C [4]: 103% | viability, T/C [5]: 99% | viability, T/C [6]: 85.8% | viability, T/C [7]: 107% | viability, T/C [8]: 97.9% | viability, T/C [9]: 95.6% | viability, T/C [10]: 96.2% | viability, T/C [11]: 92.5% | viability, T/C [12]: 80.2% | viability, T/C [13]: 91.3% | viability, T/C [14]: 103% | viability, T/C [15]: 91.5% | viability, T/C [16]: 99.1% | viability, T/C [17]: 76.8% | viability, T/C [18]: 52.1% | viability, T/C [19]: 88.2% | viability, T/C [20]: 82.1% | viability, T/C [21]: 78.3% | viability, T/C [22]: 76.9% | viability, T/C [23]: 54.1% | viability, T/C [24]: 38.5% | viability, T/C [25]: 54.4% | viability, T/C [26]: 60.6% | viability, T/C [27]: 59.2% | viability, T/C [28]: 41% | viability, T/C [29]: 28.5% | viability, T/C [30]: 23.1% | viability, T/C [31]: 32.9% | viability, T/C [32]: 31.5% | viability, T/C [33]: 31% | viability, T/C [34]: 25% | viability, T/C [35]: 20.3% | viability, T/C [36]: 14.8%
